For assay [1], the target named is T1, Interleukin-1 receptor-associated kinase 3 (Homo sapiens, UniProt Q9Y616).
T1 sequence (Q9Y616 whole entry): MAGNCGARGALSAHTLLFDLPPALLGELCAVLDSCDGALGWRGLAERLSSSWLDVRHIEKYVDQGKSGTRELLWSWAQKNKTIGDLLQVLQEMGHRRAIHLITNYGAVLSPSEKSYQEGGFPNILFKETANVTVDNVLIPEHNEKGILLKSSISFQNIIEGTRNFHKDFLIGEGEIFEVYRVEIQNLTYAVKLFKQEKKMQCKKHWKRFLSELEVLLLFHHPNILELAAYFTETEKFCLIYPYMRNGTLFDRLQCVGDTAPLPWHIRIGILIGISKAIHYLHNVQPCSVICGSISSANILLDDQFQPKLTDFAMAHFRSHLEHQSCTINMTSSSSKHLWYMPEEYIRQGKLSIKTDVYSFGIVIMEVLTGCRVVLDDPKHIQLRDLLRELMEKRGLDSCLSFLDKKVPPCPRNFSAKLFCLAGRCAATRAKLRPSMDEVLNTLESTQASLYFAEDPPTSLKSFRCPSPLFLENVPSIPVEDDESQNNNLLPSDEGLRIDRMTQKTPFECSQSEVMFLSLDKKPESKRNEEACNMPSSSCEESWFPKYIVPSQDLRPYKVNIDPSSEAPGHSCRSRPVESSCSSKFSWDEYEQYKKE

The target in assay [2] is Calcium/calmodulin-dependent protein kinase kinase 2 (Homo sapiens, UniProt Q96RR4).
Assay [3] concerns the target T2, Dual specificity mitogen-activated protein kinase kinase 5 (Homo sapiens, UniProt Q13163).
T2 sequence (Q13163 whole entry): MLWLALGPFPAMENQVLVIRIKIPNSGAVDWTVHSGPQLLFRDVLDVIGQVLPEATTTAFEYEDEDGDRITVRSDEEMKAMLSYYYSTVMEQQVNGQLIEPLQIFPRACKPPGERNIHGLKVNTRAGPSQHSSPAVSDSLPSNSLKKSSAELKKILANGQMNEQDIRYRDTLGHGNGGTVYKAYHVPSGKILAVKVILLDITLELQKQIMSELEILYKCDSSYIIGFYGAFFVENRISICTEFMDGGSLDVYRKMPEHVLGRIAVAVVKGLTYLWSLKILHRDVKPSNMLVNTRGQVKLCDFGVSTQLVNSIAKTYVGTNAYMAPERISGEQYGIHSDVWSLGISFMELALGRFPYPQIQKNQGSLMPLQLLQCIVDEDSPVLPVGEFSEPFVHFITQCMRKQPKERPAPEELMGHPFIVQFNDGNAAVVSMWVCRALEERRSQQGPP

The target in assay [4] is S-adenosylmethionine synthase isoform type-2 (Homo sapiens, UniProt P31153).
The target in assay [5] is Cyclin-dependent kinase 7 (Homo sapiens, UniProt P50613).
Assay [6] addresses T3, Acyl-CoA dehydrogenase family member 10 (Homo sapiens, UniProt Q6JQN1).
T3 sequence (Q6JQN1 whole entry): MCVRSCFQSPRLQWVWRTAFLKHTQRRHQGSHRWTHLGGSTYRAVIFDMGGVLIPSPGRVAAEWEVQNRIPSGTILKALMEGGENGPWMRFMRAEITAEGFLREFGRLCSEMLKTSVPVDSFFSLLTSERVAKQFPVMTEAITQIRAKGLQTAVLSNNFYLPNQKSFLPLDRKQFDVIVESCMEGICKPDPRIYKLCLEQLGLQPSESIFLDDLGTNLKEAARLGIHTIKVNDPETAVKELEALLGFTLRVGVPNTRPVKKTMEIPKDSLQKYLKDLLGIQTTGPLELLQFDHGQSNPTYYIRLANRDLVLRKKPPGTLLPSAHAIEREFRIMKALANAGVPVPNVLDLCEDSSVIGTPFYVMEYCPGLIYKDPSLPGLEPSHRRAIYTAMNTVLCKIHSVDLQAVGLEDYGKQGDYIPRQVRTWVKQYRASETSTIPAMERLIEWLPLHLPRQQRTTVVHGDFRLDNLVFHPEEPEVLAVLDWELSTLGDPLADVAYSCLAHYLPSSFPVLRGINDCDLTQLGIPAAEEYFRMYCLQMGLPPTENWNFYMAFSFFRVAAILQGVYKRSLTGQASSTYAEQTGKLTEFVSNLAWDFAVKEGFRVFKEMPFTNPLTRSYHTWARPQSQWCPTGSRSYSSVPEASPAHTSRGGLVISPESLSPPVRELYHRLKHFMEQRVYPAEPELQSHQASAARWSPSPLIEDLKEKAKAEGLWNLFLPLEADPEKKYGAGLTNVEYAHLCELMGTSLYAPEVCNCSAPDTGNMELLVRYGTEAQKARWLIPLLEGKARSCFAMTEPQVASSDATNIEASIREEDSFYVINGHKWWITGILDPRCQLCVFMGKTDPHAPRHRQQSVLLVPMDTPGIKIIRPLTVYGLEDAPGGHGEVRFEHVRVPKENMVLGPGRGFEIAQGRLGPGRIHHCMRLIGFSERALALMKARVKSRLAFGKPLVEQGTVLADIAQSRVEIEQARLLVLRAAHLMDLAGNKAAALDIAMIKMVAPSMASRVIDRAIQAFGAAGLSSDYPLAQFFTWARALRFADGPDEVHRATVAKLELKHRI

Assay [7] has as its target T4, Ferrochelatase, mitochondrial (Homo sapiens, UniProt P22830).
T4 sequence (P22830 whole entry): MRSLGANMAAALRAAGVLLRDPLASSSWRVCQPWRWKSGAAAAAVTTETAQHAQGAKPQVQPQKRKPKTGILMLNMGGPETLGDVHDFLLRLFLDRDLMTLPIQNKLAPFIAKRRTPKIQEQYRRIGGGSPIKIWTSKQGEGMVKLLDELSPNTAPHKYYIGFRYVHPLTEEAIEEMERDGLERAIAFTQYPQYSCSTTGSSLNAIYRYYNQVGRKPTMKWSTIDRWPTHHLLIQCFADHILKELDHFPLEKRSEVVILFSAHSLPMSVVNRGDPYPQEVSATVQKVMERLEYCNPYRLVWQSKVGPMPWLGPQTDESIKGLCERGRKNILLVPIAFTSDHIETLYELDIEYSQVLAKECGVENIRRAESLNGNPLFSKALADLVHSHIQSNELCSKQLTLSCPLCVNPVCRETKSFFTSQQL

Assay [8] concerns the target cAMP-dependent protein kinase catalytic subunit gamma (Homo sapiens, UniProt P22612).
For assay [9], the target named is Dual specificity tyrosine-phosphorylation-regulated kinase 1A (Homo sapiens, UniProt Q13627).
Assay [10] concerns the target Structural maintenance of chromosomes protein 2 (Homo sapiens, UniProt O95347).

The source made the active and inactive calls. Cut-off read from the data, not from the text of the source, for most assays here: actives have a measured Kd and inactives only a lower limit.

This is an account of results in ChEMBL document CHEMBL3991601, “The target landscape of clinical kinase drugs” (Science, 2017).
Note: in the data inactive means no Kd found up to 30 µM.

S-adenosylmethionine synthase isoform type-2, sequence (P31153 whole entry, canonical isoform): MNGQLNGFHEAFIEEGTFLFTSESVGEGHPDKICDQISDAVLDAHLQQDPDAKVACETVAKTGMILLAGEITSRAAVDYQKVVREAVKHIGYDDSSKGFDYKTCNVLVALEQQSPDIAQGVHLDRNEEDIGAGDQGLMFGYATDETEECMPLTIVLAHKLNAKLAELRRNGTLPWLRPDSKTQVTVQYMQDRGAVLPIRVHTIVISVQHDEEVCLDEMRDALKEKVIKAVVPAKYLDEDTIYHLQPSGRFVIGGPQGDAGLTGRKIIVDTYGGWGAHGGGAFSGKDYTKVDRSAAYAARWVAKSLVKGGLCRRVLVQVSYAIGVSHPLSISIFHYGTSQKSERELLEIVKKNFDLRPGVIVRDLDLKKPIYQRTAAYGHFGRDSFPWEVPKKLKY
Cyclin-dependent kinase 7, sequence (P50613 whole entry): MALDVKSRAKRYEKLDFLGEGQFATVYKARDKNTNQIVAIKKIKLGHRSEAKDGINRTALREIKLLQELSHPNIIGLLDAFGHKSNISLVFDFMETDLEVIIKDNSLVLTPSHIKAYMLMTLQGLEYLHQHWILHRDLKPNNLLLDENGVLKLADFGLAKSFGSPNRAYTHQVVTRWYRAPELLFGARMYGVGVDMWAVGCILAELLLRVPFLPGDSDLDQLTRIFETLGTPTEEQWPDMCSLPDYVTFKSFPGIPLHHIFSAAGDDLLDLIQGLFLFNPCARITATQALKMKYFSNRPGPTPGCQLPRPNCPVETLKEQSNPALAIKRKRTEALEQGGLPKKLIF
Structural maintenance of chromosomes protein 2, sequence (O95347 whole entry): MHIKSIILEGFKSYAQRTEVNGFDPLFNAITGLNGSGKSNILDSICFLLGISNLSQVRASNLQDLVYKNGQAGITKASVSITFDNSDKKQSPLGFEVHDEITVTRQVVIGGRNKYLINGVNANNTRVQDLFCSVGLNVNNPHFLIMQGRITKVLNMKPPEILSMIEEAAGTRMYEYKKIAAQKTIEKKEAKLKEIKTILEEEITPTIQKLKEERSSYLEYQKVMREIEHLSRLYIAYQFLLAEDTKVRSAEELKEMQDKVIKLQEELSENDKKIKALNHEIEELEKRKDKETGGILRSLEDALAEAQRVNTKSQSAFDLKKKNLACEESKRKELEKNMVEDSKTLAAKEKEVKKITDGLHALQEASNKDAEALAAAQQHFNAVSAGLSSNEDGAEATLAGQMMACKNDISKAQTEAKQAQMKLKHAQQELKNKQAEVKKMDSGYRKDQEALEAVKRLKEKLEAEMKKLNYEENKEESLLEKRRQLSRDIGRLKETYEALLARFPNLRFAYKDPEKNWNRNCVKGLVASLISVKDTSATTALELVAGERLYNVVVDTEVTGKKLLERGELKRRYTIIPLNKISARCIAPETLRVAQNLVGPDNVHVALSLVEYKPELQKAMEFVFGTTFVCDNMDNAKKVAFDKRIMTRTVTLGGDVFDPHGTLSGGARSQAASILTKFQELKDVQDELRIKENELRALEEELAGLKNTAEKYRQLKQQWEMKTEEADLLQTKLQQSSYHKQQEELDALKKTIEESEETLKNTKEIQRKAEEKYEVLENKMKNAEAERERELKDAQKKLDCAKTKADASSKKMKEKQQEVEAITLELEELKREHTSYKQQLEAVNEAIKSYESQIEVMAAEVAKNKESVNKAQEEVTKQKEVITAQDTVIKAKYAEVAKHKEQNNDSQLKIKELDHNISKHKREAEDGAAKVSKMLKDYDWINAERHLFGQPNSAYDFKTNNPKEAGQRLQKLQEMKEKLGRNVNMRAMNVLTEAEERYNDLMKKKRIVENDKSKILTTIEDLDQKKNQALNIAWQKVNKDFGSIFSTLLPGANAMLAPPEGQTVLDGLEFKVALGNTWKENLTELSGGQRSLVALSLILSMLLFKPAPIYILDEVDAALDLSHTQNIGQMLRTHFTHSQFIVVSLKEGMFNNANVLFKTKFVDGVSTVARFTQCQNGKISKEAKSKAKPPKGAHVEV
cAMP-dependent protein kinase catalytic subunit gamma, sequence (P22612 whole entry): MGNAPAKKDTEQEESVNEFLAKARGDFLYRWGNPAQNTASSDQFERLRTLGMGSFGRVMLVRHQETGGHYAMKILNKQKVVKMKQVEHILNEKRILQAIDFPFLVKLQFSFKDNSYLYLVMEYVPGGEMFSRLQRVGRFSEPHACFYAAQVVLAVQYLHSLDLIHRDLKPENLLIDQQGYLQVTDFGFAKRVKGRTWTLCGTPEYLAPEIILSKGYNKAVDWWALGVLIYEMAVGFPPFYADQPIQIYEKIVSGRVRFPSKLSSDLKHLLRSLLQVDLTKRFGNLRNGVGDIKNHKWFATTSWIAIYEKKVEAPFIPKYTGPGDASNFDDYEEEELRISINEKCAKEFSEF
Calcium/calmodulin-dependent protein kinase kinase 2, sequence (Q96RR4 whole entry): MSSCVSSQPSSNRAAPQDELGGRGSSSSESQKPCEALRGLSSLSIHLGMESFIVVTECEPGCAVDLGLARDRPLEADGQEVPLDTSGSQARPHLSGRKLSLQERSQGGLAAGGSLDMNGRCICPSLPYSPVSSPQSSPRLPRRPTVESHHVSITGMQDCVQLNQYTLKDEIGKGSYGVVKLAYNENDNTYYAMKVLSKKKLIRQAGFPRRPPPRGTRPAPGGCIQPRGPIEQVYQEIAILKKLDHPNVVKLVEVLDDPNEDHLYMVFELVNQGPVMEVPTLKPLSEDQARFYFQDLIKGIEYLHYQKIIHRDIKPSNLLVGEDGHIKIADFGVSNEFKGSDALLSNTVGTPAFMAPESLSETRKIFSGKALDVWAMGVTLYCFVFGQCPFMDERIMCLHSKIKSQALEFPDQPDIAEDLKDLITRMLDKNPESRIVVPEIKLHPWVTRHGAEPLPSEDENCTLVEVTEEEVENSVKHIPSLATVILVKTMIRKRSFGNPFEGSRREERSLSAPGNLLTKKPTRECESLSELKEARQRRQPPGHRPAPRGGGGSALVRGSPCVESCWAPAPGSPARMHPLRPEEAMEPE

As a reminder, the Kd is the free concentration of one partner at which half of the binding sites on the other are occupied at equilibrium, for simple one-to-one binding. Regarding `CC[C@H](Nc1ncnc2[nH]cnc12)c1nc2cccc(F)c2c(=O)n1-c1ccccc1` [IDELALISIB], the Kd in assay [1], in assay [2], in assay [3], in assay [4], in [5] and in assay [6] was > 30 µM (inactive) throughout. Moreover, the Kd in assay [7], in assay [8], in assay [9] and in [10] was > 30 µM (inactive) each time.
For `COC(=O)N[C@@H](C)CNc1nccc(-c2cn(C(C)C)nc2-c2cc(Cl)cc(NS(C)(=O)=O)c2F)n1` [ENCORAFENIB], the Kd in assay [1], in [2], in assay [3], in [4], in assay [5] and in assay [6] was > 30 µM (inactive) each time. Also, the Kd in assay [7], in assay [8], in [9] and in assay [10] was > 30 µM (inactive) in each case.
In the case of `O=c1sn(-c2cccc3ccccc23)c(=O)n1Cc1ccccc1` [TIDEGLUSIB], the Kd in [1], in assay [2], in [3], in [4], in [5] and in assay [6] was > 30 µM (inactive) each time. Moreover, the Kd in assay [7], in assay [8], in assay [9] and in assay [10] was > 30 µM (inactive) each time.
Take `COC(=O)[C@@]1(O)C[C@H]2O[C@]1(C)n1c3ccccc3c3c4c(c5c6ccccc6n2c5c31)C(=O)NC4` [K-252A]: the Kd in assay [1] is 0.254 µM (active); in assay [2], 2.28 µM (active); in [3] it was 2.03 µM (active); in assay [4] it was > 30 µM (inactive); in assay [5], > 30 µM (inactive); in assay [6], > 30 µM (inactive). Moreover, the Kd in assay [7] is > 30 µM (inactive); in assay [8], > 30 µM (inactive); in assay [9], 4.85 µM (active); in [10] it was > 30 µM (inactive).
`O=C(c1ccc(F)c(F)c1Nc1ccc(I)cc1F)N1CC(O)([C@@H]2CCCCN2)C1` [COBIMETINIB]: the Kd in assay [1], in [2], in assay [3], in assay [4], in [5] and in assay [6] was > 30 µM (inactive) throughout. Moreover, the Kd in assay [7], in assay [8], in assay [9] and in assay [10] was > 30 µM (inactive) in each case.
For the molecule `C1=C/COCc2cc(ccc2OCCN2CCCC2)Nc2nccc(n2)-c2cccc(c2)COC/1` [PACRITINIB], the Kd is 0.035 µM (active) in [1]; 7.69 µM (active) in [2]; > 30 µM (inactive) in assay [3]; > 30 µM (inactive) in assay [4]; > 30 µM (inactive) in assay [5]; > 30 µM (inactive) in assay [6]. Also, the Kd in assay [7] was 67.9 µM (active); in assay [8], > 30 µM (inactive); in assay [9] it was > 30 µM (inactive); in assay [10], > 30 µM (inactive).
For the molecule `Cc1ccc(S(=O)(=O)Nc2nc3ccccc3nc2Nc2ccc3nsnc3c2)cc1`, the Kd in assay [1], in assay [2], in assay [3], in assay [4], in assay [5] and in assay [6] was > 30 µM (inactive) in each case. For the same molecule, the Kd in [7], in [8], in [9] and in [10] was > 30 µM (inactive) throughout.
`CN(C)C(=O)c1cc2cnc(Nc3ccc(N4CCNCC4)cn3)nc2n1C1CCCC1` [RIBOCICLIB]: the Kd in assay [1], in assay [2], in assay [3], in assay [4], in [5] and in [6] was > 30 µM (inactive) throughout. Also, the Kd is 12.3 µM in assay [7], > 30 µM (inactive) in [8], > 30 µM (inactive) in [9] and > 30 µM (inactive) in assay [10].
In the case of `O=C(Nc1ccc(-c2ccnc(Nc3ccc(N4CCOCC4)cc3)n2)cc1)C1CCCN1` (stereo not given) [XL-019], the Kd in assay [1], in assay [2], in assay [3], in assay [4], in [5] and in assay [6] was > 30 µM (inactive) each time. The Kd in assay [7], in assay [8], in assay [9] and in [10] was > 30 µM (inactive) each time.
As to `CNC(=O)CN1CCC(Oc2cc3c(Nc4cccc(Cl)c4F)ncnc3cc2OC)CC1` [SAPITINIB], the Kd in assay [1], in [2], in assay [3], in assay [4], in [5] and in assay [6] was > 30 µM (inactive) throughout. The Kd in assay [7], in [8], in assay [9] and in assay [10] was > 30 µM (inactive) in each case.
